Experimental data taken from US20140309296A1, “BUDIODARONE FORMULATIONS” (Armetheon, Inc., priority 2013, published 2014).
Where a name gives a salt, the structure may show the parent alone. One block for each compound: values may come before it.

Key:
[1] = test system: sodium, potassium, and calcium ion channels; conditions: in vivo; cited from earlier work
[2] = Budiodarone concentration attainable in hyperconcentrated solutions (Examples 16-18); type: physicochemical
Protocol: The benzyl alcohol/budiodarone tartrate solution is viscous and therefore direct measurement of the budiodarone concentration is difficult. A better way to measure budiodarone concentration in the solution of benzyl alcohol and budiodarone oil or in a hyperconcentrated solution is by using an indirect method. In this example, the volume of the benzyl alcohol/budiodarone mixture was measured, which in turn allowed for the calculation of an accurate budiodarone concentration.
In each of five vials of accurately known volume, budiodarone tartrate (250 mg) and benzyl alcohol (91 μl) were mixed in order to make a 3/1 mixture (mol/mol). Then the solution was mixed thoroughly in order to make a clear solution. This was aided with the help of warming to 50° C. for 3 minutes in order to reduce the viscosity of the mixture. The weight of the vial containing the 3:1 mixture of benzyl alcohol/budiodarone was then recorded. Vial number 1 was filled with silicon oil of density d=0.964 and weighed again. The difference in weight provided the weight of the silicon oil added. This, divided by the density of the silicon oil provided the volume of silicon oil necessary to fill the vial. The difference with the known volume of the vial represents the volume of the benzyl alcohol/budiodarone mixture. To Vial numbers 2, 3, 4, and 5 was added 50, 100, 200, and 400 μl of water, respectively. The contents of the vials were then thoroughly mixed in order to get hyperconcentrated solutions of different volumes and different budiodarone concentrations. The volumes of these hyperconcentrations using silicon oil were measured as described above.
The same experiment as Example 16 was replicated, using mixtures of 5/1 ratio (250 mg of budiodarone tartrate and 152 μl of benzyl alcohol) and various volumes of water added. Using the same procedure as Example 16, a maximum calculated budiodarone concentration of 737 mg/ml and a maximum benzyl alcohol concentration of 45% (v/v) were found.
Similarly, the experiment in Example 16 was replicated, using a 1/1 mixture (250 mg of budiodarone tartrate and 30 μl of benzyl alcohol). A maximum calculated budiodarone concentration of 1,136 mg/ml and a maximum benzyl alcohol concentration of 13.6% (v/v) were found.

[3] = 30 ml of 0.9% benzyl alcohol in saline, estimated from animal studies; cited from earlier work
[4] = Solubility of budiodarone tartrate in water (Example 2); type: physicochemical
Protocol: The aqueous solubility of budiodarone tartrate was measured in pure distilled water. Budiodarone tartrate (250 mg) was suspended in distilled water (10 ml) and the suspension was vortexed on a VWR Genie 2 vortexer at maximum speed for 3×10 sec duration. The suspension was then stirred for 96 hours at room temperature, protected from light. After 96 hours, the suspension was vortexed again and a 1 ml aliquot was centrifuged at 13,000 rpm for 10 minutes to precipitate all insoluble material. A 40 μl aliquot of the clear supernatant was diluted with 960 μl of methanol (25-fold dilution) and was analyzed by HPLC using Conditions 3.
The amount of budiodarone in solution is found to be 7.04 mg/ml. This figure is the solubility of budiodarone tartrate in water.

Compound: CCN(CC)CCOc1c(I)cc(C(=O)c2c(CC(=O)O)oc3ccccc23)cc1I [ATI-2000]
electrophysiological activity of the major metabolite [1]: electrophysiologically inactive

maximum benzyl alcohol concentration ([2]; 1/1 mixture): 13.6 % (v/v)
maximum benzyl alcohol concentration ([2]; 3:1 molar ratio of benzyl alcohol/budiodarone): 32.4 % (v/v)
maximum benzyl alcohol concentration ([2]; 5/1 ratio): 45 % (v/v)
Compound: OCc1ccccc1 [benzyl alcohol]
amount estimated to be safe by rapid intravenous infusion [3]: approximately 4.5 mg/kg

Compound: CC[C@H](C)OC(=O)Cc1oc2ccccc2c1C(=O)c1cc(I)c(OCCN(CC)CC)c(I)c1 [budiodarone tartrate, (1S)-1-methylpropyl 2-(3-{4-[2-(diethylamino)ethoxy]-3,5-diiodobenzoyl}benzofuran-2-yl)acetate, hydrogen (2R,3R)-2,3-dihydroxybutanedioate]
degradation products in the clear supernatant ([4]; after 96 hours stirring in distilled water at room temperature, HPLC): No significant amount of degradation products were detected
solubility at 96 h ([4]; distilled water, water, thermodynamic from solid, water, room temperature, read-out: aqueous solubility of budiodarone tartrate): 7040 µg/mL
aqueous solubility of budiodarone tartrate ([4]; water, room temperature): about 7 mg/ml
